pIC50: −log10 of the molar value. Read-outs that look alike come from different tables or passages of the source.
Tests used:
Cathepsin V = Cathepsin V (Homo sapiens, UniProt O60911); experiment: Selectivity assay, cathepsin V; assay type: biochemical; details: for % inhibition: 16 μM inhibitor
Cathepsin H = Cathepsin H (Homo sapiens, UniProt P09668); experiment: Selectivity assay, cathepsin H; assay type: biochemical; details: for % inhibition: 16 μM inhibitor
Cathepsin L = Cathepsin L (Homo sapiens, UniProt P07711); experiment: Selectivity assay, cathepsin L; assay type: biochemical; details: for % inhibition: 16 μM inhibitor
Cathepsin C = Cathepsin C (Homo sapiens, UniProt P53634); experiment: Selectivity assay, cathepsin C; assay type: biochemical; details: for % inhibition: 16 μM inhibitor
Cathepsin S = Cathepsin S (Homo sapiens, UniProt P25774); experiment: Selectivity assay, cathepsin S; assay type: biochemical; details: for % inhibition: 16 μM inhibitor
Cathepsin K = molecular target: T1, Cathepsin K (Homo sapiens, UniProt P43235); experiment: Selectivity assay, cathepsin K; assay type: biochemical; details: for % inhibition: 16 μM inhibitor
T1 sequence (P43235 115-329): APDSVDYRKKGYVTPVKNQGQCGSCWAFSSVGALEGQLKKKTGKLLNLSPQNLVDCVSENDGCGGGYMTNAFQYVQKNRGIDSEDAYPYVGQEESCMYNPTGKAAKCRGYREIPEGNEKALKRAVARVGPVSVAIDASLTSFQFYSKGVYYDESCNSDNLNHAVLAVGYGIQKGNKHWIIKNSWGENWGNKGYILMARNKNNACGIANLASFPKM

cathepsin B [1] = molecular target: T2, cathepsin B (Homo sapiens, UniProt P07858); experiment: Irreversible inhibition mechanism by dilution experiments; assay type: biochemical; details: pH 4.6, pH 5.5, and pH 7.2; preincubation at 10 times the IC50, diluted 100-fold, Z-F-R-AMC added
Cathepsin X = Cathepsin X (Homo sapiens, UniProt Q9UBR2); experiment: Selectivity assay, cathepsin X; assay type: biochemical; details: for % inhibition: 16 μM inhibitor
cathepsin B [2] = molecular target: T2, cathepsin B; experiment: Cathepsin B activity assay with Z-Phe-Arg-AMC, inhibition kinetics; assay type: biochemical; details: for KI (inactivation): read-out: KI, irreversible inhibitor kinetics
cathepsin B [3] = molecular target: T2, cathepsin B; experiment: Multiplex substrate profiling by mass spectrometry; assay type: biochemical; details: 10 nM inhibitor, 30 min preincubation
cathepsin B [4] = details: ref [44]; cited from earlier work

Sequence of Cathepsin C (P53634 25-134 limits assumed): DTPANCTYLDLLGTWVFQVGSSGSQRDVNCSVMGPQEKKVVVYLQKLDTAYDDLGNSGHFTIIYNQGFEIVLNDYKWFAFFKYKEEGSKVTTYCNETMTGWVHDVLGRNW
Sequence of Cathepsin C (P53634 231-394 limits assumed): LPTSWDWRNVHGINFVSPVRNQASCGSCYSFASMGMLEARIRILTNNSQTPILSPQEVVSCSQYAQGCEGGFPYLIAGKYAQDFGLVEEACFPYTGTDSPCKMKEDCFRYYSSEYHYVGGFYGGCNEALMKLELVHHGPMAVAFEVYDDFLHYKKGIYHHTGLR
Sequence of Cathepsin C (P53634 395-463 limits assumed): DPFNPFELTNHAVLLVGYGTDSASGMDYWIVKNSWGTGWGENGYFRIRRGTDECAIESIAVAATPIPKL
Sequence of Cathepsin X (Q9UBR2 62-303): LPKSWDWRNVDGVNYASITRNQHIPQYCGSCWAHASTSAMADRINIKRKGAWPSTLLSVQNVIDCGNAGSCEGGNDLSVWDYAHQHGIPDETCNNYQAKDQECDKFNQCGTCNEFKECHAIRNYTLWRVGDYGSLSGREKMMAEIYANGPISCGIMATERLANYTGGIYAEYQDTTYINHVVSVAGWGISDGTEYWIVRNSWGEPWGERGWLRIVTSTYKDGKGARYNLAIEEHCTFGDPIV
Sequence of Cathepsin V (O60911 114-334): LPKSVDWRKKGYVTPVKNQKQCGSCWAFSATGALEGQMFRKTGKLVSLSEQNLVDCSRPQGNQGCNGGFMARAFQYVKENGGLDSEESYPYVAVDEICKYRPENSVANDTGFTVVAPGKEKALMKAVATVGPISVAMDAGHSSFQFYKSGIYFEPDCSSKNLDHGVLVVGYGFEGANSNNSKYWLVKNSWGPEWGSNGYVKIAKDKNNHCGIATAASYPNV
Sequence of Cathepsin H (P09668 116-335 limits assumed, other chains not shown): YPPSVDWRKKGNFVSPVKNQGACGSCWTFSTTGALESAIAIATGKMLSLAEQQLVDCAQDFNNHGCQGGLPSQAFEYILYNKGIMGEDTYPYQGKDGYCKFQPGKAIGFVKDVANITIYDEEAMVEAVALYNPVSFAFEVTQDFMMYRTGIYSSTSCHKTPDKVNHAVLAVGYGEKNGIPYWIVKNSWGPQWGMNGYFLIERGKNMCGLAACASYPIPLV
Sequence of Cathepsin L (P07711 114-333): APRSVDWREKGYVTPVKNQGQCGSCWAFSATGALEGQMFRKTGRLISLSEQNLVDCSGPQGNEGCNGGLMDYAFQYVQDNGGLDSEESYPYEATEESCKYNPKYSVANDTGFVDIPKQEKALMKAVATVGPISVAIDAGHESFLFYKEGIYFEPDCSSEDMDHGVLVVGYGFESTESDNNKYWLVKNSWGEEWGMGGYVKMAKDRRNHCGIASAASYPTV
Sequence of Cathepsin S (P25774 115-331): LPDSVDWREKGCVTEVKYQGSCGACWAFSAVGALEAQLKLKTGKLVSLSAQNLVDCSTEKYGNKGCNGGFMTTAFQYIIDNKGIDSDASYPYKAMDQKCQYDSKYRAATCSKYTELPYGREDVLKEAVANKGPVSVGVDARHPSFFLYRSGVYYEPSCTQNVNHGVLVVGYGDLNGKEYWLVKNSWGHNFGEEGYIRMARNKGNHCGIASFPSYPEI

CCCNC(=O)[C@H]1O[C@@H]1C(=O)N[C@H](C(=O)N1CCC[C@H]1C(=O)OC)[C@@H](C)CC [CA-074Me]
pIC50 (Cathepsin V; pH 5.5): < 4.80
% inhibition (Cathepsin V; pH 5.5): 22%
pIC50 (Cathepsin V; pH 7.2): < 4.80
% inhibition (Cathepsin V; pH 7.2): 0%
pIC50 (Cathepsin H; pH 4.6): < 4.80
% inhibition (Cathepsin H; pH 4.6): 0%
pIC50 (Cathepsin H; pH 5.5): < 4.80
% inhibition (Cathepsin H; pH 5.5): 0%
pIC50 (Cathepsin H; pH 7.2): < 4.80
% inhibition (Cathepsin H; pH 7.2): 19%
pIC50 (Cathepsin L; pH 4.6): < 4.80
% inhibition (Cathepsin L; pH 4.6): 0%
pIC50 (Cathepsin L; pH 5.5): < 4.80
% inhibition (Cathepsin L; pH 5.5): 0%
pIC50 (Cathepsin C; pH 4.6): < 4.80
% inhibition (Cathepsin C; pH 4.6): 5%
pIC50 (Cathepsin C; pH 5.5): < 4.80
% inhibition (Cathepsin C; pH 5.5): 0%
pIC50 (Cathepsin C; pH 7.2): < 4.80
% inhibition (Cathepsin C; pH 7.2): 4%
pIC50 (Cathepsin S; pH 4.6): < 4.80
% inhibition (Cathepsin S; pH 4.6): 22%
pIC50 (Cathepsin S; pH 5.5): 5.26
pIC50 (Cathepsin S; pH 7.2): 5.42
pIC50 (Cathepsin K; pH 4.6): < 4.80
% inhibition (Cathepsin K; pH 4.6): 0%
pIC50 (Cathepsin K; pH 5.5): < 4.80
% inhibition (Cathepsin K; pH 5.5): 0%
pIC50 (Cathepsin K; pH 7.2): < 4.80
% inhibition (Cathepsin K; pH 7.2): 16%
irreversible or reversible inhibition of cathepsin B (cathepsin B [1]): irreversible inhibition
pIC50 (Cathepsin X; pH 4.6): < 4.80
% inhibition (Cathepsin X; pH 4.6): 0%
pIC50 (Cathepsin X; pH 5.5): < 4.80
% inhibition (Cathepsin X; pH 5.5): 0%
pIC50 (cathepsin B [2]; pH 4.6): 5.05
fold less potent than CA-074 (IC50) (cathepsin B [2]; pH 4.6): 1495 fold
kinact (cathepsin B [2]; pH 4.6): 0.016 s⁻¹
kinact/KI (cathepsin B [2]; pH 4.6): 310 M⁻¹ s⁻¹
pIC50 (cathepsin B [2]; pH 4.6, Z-Phe-Arg-AMC substrate, no preincubation): 5.05
fold less potent than CA-074 (IC50) (cathepsin B [2]; pH 5.5): 311 fold
kinact (cathepsin B [2]; pH 5.5): 0.014 s⁻¹
kinact/KI (cathepsin B [2]; pH 5.5): 250 M⁻¹ s⁻¹
potency (KI) compared to CA-074 (cathepsin B [2]; pH 5.5): 1/265
pIC50 (cathepsin B [2]; pH 5.5, Z-Phe-Arg-AMC substrate, no preincubation): 4.86
pIC50 (cathepsin B [2]; pH 7.2): 5.12
fold less potent than CA-074 (IC50) (cathepsin B [2]; pH 7.2): 10 fold
kinact (cathepsin B [2]; pH 7.2): 0.014 s⁻¹
kinact/KI (cathepsin B [2]; pH 7.2): 480 M⁻¹ s⁻¹
potency (KI) compared to CA-074 (cathepsin B [2]; pH 7.2): 1/15
pIC50 (cathepsin B [2]; pH 7.2, Z-Phe-Arg-AMC substrate, no preincubation): 5.12
KI (inactivation) (cathepsin B [2]; pH 4.6): 52 µM
KI (inactivation) (cathepsin B [2]; pH 5.5): 56 µM
KI (inactivation) (cathepsin B [2]; pH 7.2): 29 µM

CCCNC(=O)[C@H]1O[C@@H]1C(=O)N[C@H](C(=O)N1CCC[C@H]1C(=O)O)[C@@H](C)CC (relative stereo) [CA-074, N-(L-3-trans-propylcarbamoyloxirane-2-carbonyl)-L-isoleucyl-L-proline]
pIC50 (Cathepsin V; pH 4.6): < 4.80
% inhibition (Cathepsin V; pH 4.6, 16 µM): 10%
pIC50 (Cathepsin V; pH 5.5): < 4.80
pIC50 (Cathepsin V; pH 7.2): < 4.80
pIC50 (Cathepsin C; pH 4.6): < 4.80
pIC50 (Cathepsin C; pH 5.5): < 4.80
pIC50 (Cathepsin C; pH 7.2): < 4.80
pIC50 (Cathepsin S; pH 4.6): < 4.80
pIC50 (Cathepsin S; pH 5.5): 5.32
pIC50 (Cathepsin S; pH 7.2): < 4.80
% inhibition (Cathepsin S; pH 7.2): 29%
pIC50 (Cathepsin K; pH 4.6): < 4.80
% inhibition (Cathepsin K; pH 4.6, 16 µM): 8%
pIC50 (Cathepsin K; pH 5.5): < 4.80
pIC50 (Cathepsin K; pH 7.2): < 4.80
irreversible or reversible inhibition of cathepsin B (cathepsin B [1]): irreversible
pIC50 (Cathepsin X; pH 4.6): < 4.80
% inhibition (Cathepsin X; pH 4.6, 16 µM): 5%
pIC50 (Cathepsin X; pH 5.5): < 4.80
effect on cathepsin B cleavage of Z-Phe-Arg-AMC substrate (cathepsin B [2]; 10 nM inhibitor, pH 7.2): no effect
effect on cathepsin B cleavages of peptide library substrates (MSP-MS) (cathepsin B [3]; pH 4.6): blocked
effect on cathepsin B cleavages of peptide library substrates (MSP-MS) (cathepsin B [3]; pH 7.2): no effect

Cc1cccc(C)c1C(=O)OCC(=O)[C@H](CCCCN)NC(=O)[C@H](CCCN=C(N)N)NC(=O)OCc1ccccc1 [Z-Arg-Lys-AOMK]
fold selective at inhibiting cathepsin B at pH 7.4 over pH 4.6 (cathepsin B [4]): > 100 fold

From article PMC9096814 (Biochemistry, 2022)
